Tests used:
Assay type in all cases: in vivo
wheat = assay: Test Example 1: soil-surface granule pot test, phytotoxicity against crop; conditions: flumioxazin 40 g/ha; granules on soil surface; 48 days after application
Text: (§1) Plastic pots each having a diameter of 18 cm and a height of 14 cm were filled with upland soil, and then seeded with wheat and barnyardgrass. On the surface of the soil of the above-mentioned plastic pots, Flumioxazin granules (granules containing 0.25% of flumioxazin, commercial name: Broad Star, produced by Valent U.S.A.), granules containing Compound [I] (prepared by using one part of Compound [I], 0.5 part of Neocol YSK, 2 parts of Toxanon GR31A, 30 parts of Kunigel VI and 66.5 parts of calcium carbonate according to Formulation example 9), and a mixture of the Flumioxazin granules with the granules containing Compound [I] were applied with hand in a designated amount given by Table 1.
(§2) The treated plants were grown in the greenhouse. The herbicidal activity and phytotoxicity against the crop were examined 48 days after the application.

barnyardgrass [1] = assay: Test Example 1: soil-surface granule pot test, herbicidal activity; conditions: flumioxazin 40 g/ha; granules on soil surface; 48 days after application
Text: as §1, §2

yellow nutsedge = assay: Test Example 3: soil-surface spray pot test, herbicidal activity; parameters: key: 0: there is no or little difference in the degree of growth between treated plants and untreated plants at the time of observation; 7: show excellent herbicidal activity; 8: show excellent herbicidal activity; 9: show excellent herbicidal activity; 10: the test plants die completely or their growth is completely inhibited; conditions: 21 days after application
Text: Plastic pots each having a width of 32 cm, a depth of 22 cm and a height of 8 cm were filled with upland soil, and then planted with a tuber of yellow nutsedge. Next day, Flumioxazin WDG (water dispersible granules containing 51% of flumioxazin, commercial name: Valor SX, produced by Valent U.S.A.), emulsifiable concentrate containing Compound [I] (prepared by dissolving Compound [I] with acetone containing Tween 20 (surfactant, sorbitan monolaurate polyglycol ether)) and a mixture thereof was diluted with a designated amount of water, and applied uniformly on the surface of the soil with a small sprayer.
The treated plants were grown in the greenhouse. The herbicidal activity and phytotoxicity against the crop were examined 21 days after the application.

potato = assay: Test Example 6: soil-surface granule pot test, phytotoxicity against vegetable; conditions: flumioxazin 25 g/ha; granules on soil surface; 14 days after application
Text: (§3) Plastic pots each having a diameter of 21 cm and a height of 20 cm were filled with upland soil, and then planted with potato and seeded with barnyardgrass, crabgrass and ivyleaf morningglory. Next day, on the surface of the soil of the above-mentioned plastic pots, Flumioxazin granules (granules containing 0.25% of flumioxazin, commercial name: Broad Star, produced by Valent U.S.A.), granules containing 0.9% of Compound [I] (prepared according to Formulation example 9), and a mixture of the Flumioxazin granules with the granules containing Compound [I] were applied with hand in a designated amount given by Table 6.
(§4) The herbicidal activity and phytotoxicity against the vegetable were examined 14 days after the application.

ivyleaf morningglory = assay: Test Example 6: soil-surface granule pot test, herbicidal activity; conditions: flumioxazin 25 g/ha; granules on soil surface; 14 days after application
Text: as §3, §4

barnyardgrass [2] = assay: as above; conditions: flumioxazin 25 g/ha; granules on soil surface; 14 days after application
Text: as §3, §4

crabgrass = assay: as above; conditions: flumioxazin 25 g/ha; granules on soil surface; 14 days after application
Text: as §3, §4

With `C#CCN1C(=O)COc2cc(F)c(N3C(=O)C4=C(CCCC4)C3=O)cc21` [flumioxazin, N-(7-fluoro-3,4-dihydro-3-oxo-4-prop-2-ynyl-2H-1,4-benzoxadin-6-yl)cyclohex-1-ene-1,2-dicarboxamide] the “Phytotoxicity against crop Wheat” value (wheat) was “No damage”, the “Herbicidal activity Barnyardgrass” value (barnyardgrass [1]) was 4 and the “Herbicidal activity Yellow nutsedge” value (yellow nutsedge; flumioxazin 25 g/ha) was 0. For the same compound, the “Herbicidal activity Yellow nutsedge” value (yellow nutsedge; flumioxazin 50 g/ha) was 1, the “Phytotoxicity against vegetable Potato” value (potato) was “No damage” and the “Herbicidal activity Ivyleaf morningglory” value (ivyleaf morningglory) was 1. For the same compound, the “Herbicidal activity Barnyardgrass” value (barnyardgrass [2]) was 1 and the “Herbicidal activity Crabgrass” value (crabgrass) was 5.

— US7598207B2, “Herbicidal composition” (Sumitomo Chemical Company, Limited, priority 2006, dated 2009)
